PMC10687260, “1,3-Diphenylureido hydroxamate as a promising scaffold for generation of potent antimalarial histone deacetylase inhibitors” (Scientific Reports, 2023)
Like-named read-outs stand apart in the source and are kept apart here.

How the values were obtained:
P. falciparum 3D7 [1] = details: Fig. 1A; cited from earlier work
P. falciparum 3D7 [2] = test: Antiplasmodial SYBR Green I proliferation assay, P. falciparum 3D7; format: cell-based, Plasmodium falciparum; details: read-out: IC50 Pf3D7
From the text: (§1) Antiplasmodial activity against P. falciparum 3D7 (A, C and E) and P. falciparum Dd2 (B, D, F). […] Curves were plotted using non-linear regression based on means from three independent experiments measured in triplicate. Error bars indicate standard deviation, whose values are provided in the respective table.
(§2) Plasmodium falciparum culture and antiplasmodial activity. […] Development, parasitaemia, and morphology of parasites were monitored by light microscopy of thin blood smears stained according to the Romanowsky method (Panótico Rápido staining kit; Laborclin, Pinhais, Paraná, Brazil). […] Fresh 0^+ blood was generously provided by “Hospital Novo Atibaia” (Atibaia, SP, Brazil), and approved by the ethics committee at ICB-USP. The antiplasmodial effect of all compounds was validated against P. falciparum 3D7 strain conducting SYBR Green I (Invitrogen) drug assays as previously reported[30],[46] as a modification of the original procedure. […] Parasite proliferation was measured by the DNA load via fluorescence, using 100 μL of a lysis buffer with SYBR Green I (0.02% v/v) and incubated for 1 h at room temperature in the dark. […] Focal and gain adjustment was performed using the non-treated controls (highest expected fluorescence signal). Data was acquired via the CLARIOstar (V5.20) and MARS software, manually scaled to 0–100%, and plotted using GraphPad Prism (v9.5.2 for Windows, GraphPad Software, La Jolla California USA, www.graphpad.com). Non-treated parasites, the highest solvent concentration on parasites, CQ on parasites, and the highest drug concentration in the medium were used as controls for maximal growth, solvent control, positive biological control, and native drug fluorescence, respectively.

P. falciparum Dd2 = test: Antiplasmodial SYBR Green I proliferation assay, P. falciparum Dd2; format: cell-based; details: Plasmodium falciparum
From the text: as §1, §2

HepG2 cells = test: Cytotoxicity in human HepG2 cells (WST-1); format: cell-based; details: read-out: IC50 HepG2
Experimental: Cytotoxicity in human HepG2 cells.[47] […] Cytotoxic effects of compounds were assessed using the cell proliferation reagent WST-1 (Roche; CELLPRO-RO) in a 96-well plate-based screening assay. HepG2 cells were seeded at 10^4 cells/well (100 μL) in 96-well flat-bottom plates (Sarstedt) the night before the experiment to allow attachment of cells. The next day, two-fold serial dilutions of compounds were prepared in fresh medium in an extra plate, and the medium of cells was replaced by the medium containing the compound dilutions. Non-treated cells (max. proliferation), cells treated with the maximal solvent concentration (DMSO; solvent control), and medium with the maximal compound concentration (native absorbance) used as controls. […] Subsequently, 10 μL WST-1 was added to each well and plates were incubated for additional 4 h under standard conditions. WST-1 is a tetrazolium salt and is metabolised by the mitochondrial succinate-tetrazolium-reductase system of living cells and forms formazan, whose absorbance was measured at 450 nm. Absorbance at 630 nm was assessed to check for protein and precipitation background. Both measurements were acquired via the CLARIOstar (V5.20) and MARS software, manually scaled to 0–100%, and plotted with GraphPad Prism (version 9.5.2 for Windows, GraphPad Software, La Jolla California USA).

PfHDAC1 = molecular target: T1, PfHDAC1 (Plasmodium falciparum, UniProt Q7K6A1); test: In vitro PfHDAC1 enzymatic assay; format: biochemical
T1 construct: purchased BPS Bioscience (San Diego, CA)
T1 sequence (Q7K6A1 1-449): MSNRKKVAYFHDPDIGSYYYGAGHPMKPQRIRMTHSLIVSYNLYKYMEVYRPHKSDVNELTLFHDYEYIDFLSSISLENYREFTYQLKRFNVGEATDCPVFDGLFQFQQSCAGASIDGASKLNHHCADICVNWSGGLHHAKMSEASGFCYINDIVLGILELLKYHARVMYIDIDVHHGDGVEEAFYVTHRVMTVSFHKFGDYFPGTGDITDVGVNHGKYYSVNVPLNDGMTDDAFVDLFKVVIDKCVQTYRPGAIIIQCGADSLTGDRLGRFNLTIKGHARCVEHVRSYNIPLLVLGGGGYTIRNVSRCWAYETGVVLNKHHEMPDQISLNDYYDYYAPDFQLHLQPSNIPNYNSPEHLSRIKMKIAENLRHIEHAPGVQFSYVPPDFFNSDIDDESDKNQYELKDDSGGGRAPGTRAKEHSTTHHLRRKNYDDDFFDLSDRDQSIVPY
Experimental: In vitro PfHDAC1 enzymatic assay. PfHDAC inhibition assays were performed by BPS Bioscience (San Diego, CA). […] Then, each DMSO solution was directly diluted 10 × fold into the HDAC assay buffer for an intermediate dilution of 10% DMSO in HDAC assay buffer. Then, 5 µL of the intermediate dilution was added to a 50 µL reaction so that the final concentration of DMSO is 1% in all the reactions. […] Fluorescence intensity was measured at an excitation of 360 nm and an emission of 460 nm using a Tecan Infinite M1000 microplate reader. […] The fluorescent intensity data were analyzed using GraphPad Prism (v9.5.2). In the absence of the compound, the fluorescent intensity (Ft) in each data set was defined as 100% activity. In the absence of HDAC, the fluorescent intensity (Fb) in each data set was defined as 0% activity. The percent activity in the presence of each compound was calculated according to the following equation: % activity = (F-Fb)/(Ft-Fb), where “F” is the fluorescent intensity in the presence of the compound.

acetylated histone H3 = test: Western blot of acetylated histone H3 in infected erythrocytes; format: cell-based, Plasmodium falciparum; details: 10 × IC50 for 4 h, trophozoites, vs DMSO
Experimental: (§3) Figure 5 Hydroxamic acid derivatives as potent in vitro PfHDAC1 inhibitors. […]. Enzyme activity was calculated by normalizing the data against the DMSO treated samples and discounting the background. Data are presented as shown above, with mean ± S.D. (n = 2). […]. Comparison of group/concentration against the DMSO control is represented as † for P < 0.0001. […]. Numbers on side of the bands represent the predicted mass (kDa) for each protein. (C,D) Band quantification of histone H3 (C) and H4 (D), respectively, normalizing their acetylated detection against their unmodified version. Differences to this value were analyzed by one way ANOVA using the Dunnett’s post correction, comparing each group against the DMSO control, as rank tests where P values are explicitly depicted.
(§4) Western Blot analysis. […]. Proteins were transferred to PVDF membranes, 5% non-fat dry milk in TBS with Tween 20 (0.1%) was used as blocking agent for 1 h at room temperature. After, incubated with the antibodies overnight at 4 °C (Acetyl Histone H3 Lys9 C5B11 Cell Signaling, Acetyl Histone H4 Lys16 E2B8W Cell Signaling, Histone H3 96C10 Cell Signaling and Histone H4 D2X4V Cell Signaling). For the analysis of protein acetylation levels, the membranes were stripped and re-probed with the corresponding anti-total protein. Mouse monoclonal anti-α-Tubulin (B512 Sigma-Aldrich) was used as loading control. Detection was performed by enhanced chemiluminescence using horseradish peroxidase-conjugated secondary antibodies (Vector Laboratories, Burlingame, CA, USA) and SuperSignal TM West Pico PLUS Chemiluminescent substrate kit (Thermo Scientific). Images were acquired using ChemiDoc TM Imaging System (BioRad Laboratories, CA, USA). Quantitative densitometry was carried out using ImageLab software (Bio-Rad Laboratories, CA, USA). The volume density of the chemiluminescent bands was calculated as an integrated optical density × mm^2 after background correction from each independent experiment (N = 3).

acetylated histone H4 = test: Western blot of acetylated histone H4 in infected erythrocytes; format: cell-based, Plasmodium falciparum; details: 10 × IC50 for 4 h, trophozoites, vs DMSO
Experimental: as §3, §4

CYP1A2 = molecular target: T2, CYP1A2 (Homo sapiens, UniProt P05177); test: CYP450 inhibition in human liver microsomes, 1A2; format: in vitro ADME; details: 10 µM
T2 construct: 10 μM compound was incubated with human liver microsomes and selective marker substrates; from tissue; host or cells: human liver microsomes
T2 sequence (P05177 1-516): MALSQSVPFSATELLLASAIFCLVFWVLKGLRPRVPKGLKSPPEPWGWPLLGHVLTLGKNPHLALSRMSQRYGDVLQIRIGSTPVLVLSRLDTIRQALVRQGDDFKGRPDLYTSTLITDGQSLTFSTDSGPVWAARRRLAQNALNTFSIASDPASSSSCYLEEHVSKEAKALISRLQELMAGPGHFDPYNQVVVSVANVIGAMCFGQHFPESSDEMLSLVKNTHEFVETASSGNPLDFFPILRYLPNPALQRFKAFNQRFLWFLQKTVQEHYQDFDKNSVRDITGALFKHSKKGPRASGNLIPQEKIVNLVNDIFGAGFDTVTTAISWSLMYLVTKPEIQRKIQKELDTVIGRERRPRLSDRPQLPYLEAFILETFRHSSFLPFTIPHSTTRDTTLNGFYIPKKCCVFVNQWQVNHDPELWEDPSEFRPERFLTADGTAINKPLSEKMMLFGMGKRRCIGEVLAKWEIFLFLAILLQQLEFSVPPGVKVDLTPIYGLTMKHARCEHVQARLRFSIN

CYP450 2C9 = molecular target: T3, CYP450 2C9 (Homo sapiens, UniProt P11712); test: CYP450 inhibition in human liver microsomes, 2C9; format: in vitro ADME; details: 10 µM
T3 construct: 10 μM compound was incubated with human liver microsomes and selective marker substrates; from tissue; host or cells: human liver microsomes

CYP450 2D6 = molecular target: T4, CYP450 2D6 (Homo sapiens, UniProt P10635); test: CYP450 inhibition in human liver microsomes, 2D6; format: in vitro ADME; details: 10 µM
T4 construct: 10 μM compound was incubated with human liver microsomes and selective marker substrates; from tissue; host or cells: human liver microsomes
T4 sequence (P10635 whole entry): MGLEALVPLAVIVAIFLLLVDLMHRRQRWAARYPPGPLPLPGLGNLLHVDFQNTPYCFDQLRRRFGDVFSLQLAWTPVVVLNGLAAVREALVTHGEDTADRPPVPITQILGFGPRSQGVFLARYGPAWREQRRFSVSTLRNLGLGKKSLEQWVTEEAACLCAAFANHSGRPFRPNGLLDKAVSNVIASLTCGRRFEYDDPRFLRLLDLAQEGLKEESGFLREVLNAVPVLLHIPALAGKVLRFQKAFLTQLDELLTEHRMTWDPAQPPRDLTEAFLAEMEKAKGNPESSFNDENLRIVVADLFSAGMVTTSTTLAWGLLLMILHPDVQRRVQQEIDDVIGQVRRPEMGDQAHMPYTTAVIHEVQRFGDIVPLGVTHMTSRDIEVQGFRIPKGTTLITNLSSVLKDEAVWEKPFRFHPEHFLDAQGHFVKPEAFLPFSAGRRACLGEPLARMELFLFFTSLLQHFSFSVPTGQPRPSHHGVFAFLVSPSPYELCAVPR

T3 sequence (P11712 whole entry): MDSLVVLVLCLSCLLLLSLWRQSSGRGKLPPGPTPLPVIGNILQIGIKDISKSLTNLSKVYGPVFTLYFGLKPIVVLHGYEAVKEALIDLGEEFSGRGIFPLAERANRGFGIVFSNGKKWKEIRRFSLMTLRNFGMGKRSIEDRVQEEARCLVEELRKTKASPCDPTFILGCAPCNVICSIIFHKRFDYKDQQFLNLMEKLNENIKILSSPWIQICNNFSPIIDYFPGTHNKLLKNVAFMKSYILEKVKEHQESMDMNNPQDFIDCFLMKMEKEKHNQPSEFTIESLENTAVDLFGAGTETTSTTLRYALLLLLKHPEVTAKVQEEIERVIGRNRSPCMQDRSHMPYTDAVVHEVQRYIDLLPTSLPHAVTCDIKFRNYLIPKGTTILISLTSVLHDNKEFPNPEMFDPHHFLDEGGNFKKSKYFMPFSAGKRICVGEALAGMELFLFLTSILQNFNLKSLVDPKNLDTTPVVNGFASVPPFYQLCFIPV

Nc1ccccc1NC(=O)c1ccc(CNC(=O)OCc2cccnc2)cc1 [entinostat]
IC50 (P. falciparum 3D7 [1]): 7800 nM

CCN(CC)CCCC(C)Nc1ccnc2cc(Cl)ccc12 (centres unmarked) [Chloroquine, reference compound]
IC50 (P. falciparum 3D7 [2]; Plasmodium falciparum, 3D7, 96 h): 15 nM | IC50 (P. falciparum Dd2; DD2, read-out: IC50 P. falciparum Dd2): 430 nM | IC50 (HepG2 cells; Homo sapiens, HepG2, 48 h): > 100000 nM

Cc1[nH]c2ccccc2c1CCNCc1ccc(/C=C/C(=O)NO)cc1 [panobinostat]
IC50 (P. falciparum 3D7 [1]): 10 nM

O=C(CCCCCCC(=O)Nc1ccccc1)NO [Vorinostat (SAHA, 1), Vorinostat, reference compound]
IC50 (HepG2 cells; 48 h, WST-1): 2870 nM | IC50 (PfHDAC1): 100 to 1000 nM | inhibition at 1 µM (PfHDAC1; recombinant PfHDAC1): 83% | Acetylated-H3 level (normalised to unmodified H3) (acetylated histone H3): non-statistically significant increase | Acetylated-H4 level (normalised to unmodified H4) (acetylated histone H4): non-statistically significant increase

Cn1cc(CNCC2CCN(c3ncc(C(=O)NO)cn3)CC2)c2ccccc21 [quisinostat]
IC50 (P. falciparum 3D7 [1]): 5 nM

O=C(/C=C/c1cccc(S(=O)(=O)Nc2ccccc2)c1)NO [belinostat]
IC50 (P. falciparum 3D7 [1]): 60 nM

C=C[C@H]1C[N@@]2CC[C@H]1C[C@@H]2[C@@H](O)c1ccnc2ccc(OC)cc12 [Quinidine, reference compound]
CYP450% inhibition @ 10 µM 1A2 (CYP1A2): * (Inhibition < 10%) | CYP450% inhibition @ 10 µM 2C9 (CYP450 2C9): * (Inhibition < 10%) | CYP450% inhibition @ 10 µM 2D6 (CYP450 2D6): 89%

CCCCN(Cc1ccc(C(=O)NO)cc1)C(=O)Nc1ccccc1 [Nexturastat A (16), Nexturastat A, reference compound]
IC50 (P. falciparum 3D7 [2]; 96 h, values in brackets 95% confidence intervals): 230 nM | IC50 (P. falciparum 3D7 [2]; Plasmodium falciparum, 3D7, 96 h, 96 h, values in brackets 95% confidence intervals): 210 nM | IC50 (P. falciparum Dd2; DD2, multidrug/CQ-resistant strain, read-out: IC50 P. falciparum Dd2): 290 nM | IC50 (HepG2 cells; Homo sapiens, HepG2, 48 h, WST-1): 21500 nM | inhibition at 1 µM (PfHDAC1; recombinant PfHDAC1): 58% | inhibition at 10 µM (PfHDAC1; 10 µM, recombinant PfHDAC1): 92% | Acetylated-H3 level (normalised to unmodified H3) (acetylated histone H3): non-statistically significant increase | Acetylated-H4 level (normalised to unmodified H4) (acetylated histone H4): non-statistically significant increase
